Where two headings read alike, the source gives them in different places. Numbered stars: 1 amine (or outer) side, 2 acyl side, 3 side chain; on linkers, the order of the positions; unused ones are H or OH. Bridge positions count the residues as written; N and C are the ends. Square brackets hold non-standard residues; d marks the D form. Peptide text beside a SMILES is read from it. * marks the point of attachment. TATA = O=C(CC[*:1])N1CN(C(=O)CC[*:2])CN(C(=O)CC[*:3])C1; X1 = O=C(O)CN1CCN(CC(=O)O)CCN([C@H](CCC(=O)*)C(=O)O)CC1; 1Nal = N[C@@H](Cc1cccc2ccccc12)C(=O)O; Hyp = O=C(O)[C@@H]1C[C@@H](O)CN1; hArg = N=C(N)NCCCC[C@H](N)C(=O)O; hSer = N[C@@H](CCO)C(=O)O; Nle = CCCC[C@H](N)C(=O)O
Key:
[1] = molecular target: T1, recombinant human nectin-4 (Homo sapiens, UniProt Q96NY8); test: FA-based competitive binding assay with probe 1a; settings: for Hill coefficient n: competitive binding curve, variable slope; for fold lower binding affinity compared to 1e: FA K d ratio
T1 construct: close to the value determined for the complete extracellular domain of nectin-4 (0.94 nM); purchased R&D Systems 2659-N4
T1 sequence (Q96NY8 32-349 limits assumed): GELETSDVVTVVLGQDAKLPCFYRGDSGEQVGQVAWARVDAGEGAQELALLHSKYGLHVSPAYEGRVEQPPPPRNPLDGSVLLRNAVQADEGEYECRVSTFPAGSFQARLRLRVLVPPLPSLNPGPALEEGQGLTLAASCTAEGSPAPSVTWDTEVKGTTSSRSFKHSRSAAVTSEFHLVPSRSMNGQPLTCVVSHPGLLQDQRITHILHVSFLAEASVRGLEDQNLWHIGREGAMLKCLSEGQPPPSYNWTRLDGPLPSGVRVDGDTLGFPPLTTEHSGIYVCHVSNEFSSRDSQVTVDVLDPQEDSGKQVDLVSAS
Description: For the competitive binding assay, a constant concentration of probe 1a (1 nM) and of nectin-4 (20 nM) was used, and the concentration of the competitors was varied over at least 3 orders of magnitude. […] Analysis of the curves by nonlinear regression according to dose–response inhibition with variable slope, as implemented in GraphPad Prism (see Experimental section), provided the IC50 value for displacing the probe from nectin-4.
All measurements were conducted at 37 °C over 1200 s (interval of 37 s) using a Cytation 5 multimode microplate reader (BioTek Instruments, Software Gen 5) and black 96-well microplates (BRANDplates with F-bottom wells). Experiments were conducted at an excitation wavelength of 540 nm and an emission wavelength of 620 nm. The FA (r) was calculated by Gen 5 software from the measured parallel and perpendicular fluorescence intensities (I ∥ and I ⊥, respectively) according to eq using a G factor of 0.87 (preset value). r=I∥−G×I⊥/I∥+2G×I⊥ 1
All further data analyses were conducted with GraphPad Prism (version 10.4.1, GraphPad Software, San Diego, CA, USA). The assay mixture (100 μL) contained an aqueous solution (99 μL) and DMSO (1%, v/v, 1 μL).
For the competitive binding assay, fixed concentrations of probe 1a (1 nM) and recombinant human nectin-4 (20 nM) and 10 concentrations of nonlabeled peptide (e.g., […] prepared as serial 1:1 dilution) were used (two separate experiments, each performed in duplicate). The corresponding stock solutions of 1a (2.5 nM) and nectin-4 (50 nM) were prepared in HEPES buffer, while the stock solutions of the nonlabeled peptides were prepared in 5% DMSO/HEPES buffer. nectin-4 (40 μL) and 1a (40 μL) were added to the wells, and the competition was started by the addition of the nonlabeled peptides (20 μL). The FA values were averaged over the time period of 1200 s, and plots of FA = f([peptide]) were analyzed by nonlinear regression according to the model “[inhibitor] vs. response – Variable slope (four parameters)” as implemented in GraphPad Prism. […] Therefore, the lower FA plateau was constrained to the FA value of probe 1a in the absence of nectin-4 and the competitor, which was recorded in each experiment.

[2] = molecular target: T2, immobilized human nectin-4 (Homo sapiens, UniProt Q96NY8); test: SPR analysis of binding kinetics; settings: for kon / koff: ±SEM; for kon: read-out: k on (SPR, *10^6 M^–1 s^–1); for koff: read-out: k off (SPR, *10^–3 s^–1)
T2 construct: close to the value determined for the complete extracellular domain of nectin-4 (0.94 nM); purchased R&D Systems 2659-N4
T2 sequence (Q96NY8 32-349 limits assumed): T1 sequence (Q96NY8 32-349 limits assumed)
Description: For this purpose, recombinant human nectin-4 was covalently immobilized on a CM5 sensor chip by EDC/NHS coupling. For analyses, the buffer composition (HBS-P+, pH 7.4) was similar to that of the FA assay; however, DMSO was completely omitted (1% DMSO for the FA assay).
The SPR analyses were carried out on a Biacore T200 (GE Healthcare, Chicago, IL, USA) at 25 °C using CM5 sensor chips (Cytiva) and HBS-P+ as running buffer (Cytiva) at a flow of 30 μL/min unless otherwise specified and a data collection rate of 10 Hz. All flow cells (FC) were normalized, and functionalization was performed using an amine coupling Kit (Cytiva). […] Binding analyses were performed by a single-cycle kinetic on both FC. Two start-up cycles were performed at the beginning of each experimental set, comprising the injection of bicyclic peptide (50 nM) and analysis on both FC, followed by regeneration. Binding analysis for the bicyclic peptides was performed by consecutive injection of five increasing concentrations (120 s contact time for each concentration), followed by 600 s dissociation time and analysis on both FC. The regeneration was performed by sequential injection of 10 mM NaOAc (pH 5.5) for 60 s, washing the needle using HBS-P+, injection of 10 mM NaOAc (pH 5.5) for 60 s, 600 s waiting, four injections of HBS-P+ (60 s), and a final 600 s waiting for stabilization. Blank runs using only buffer (HBS-P+) instead of the sample were carried out to obtain double-referenced chromatograms. Binding analyses were performed unless otherwise stated in a concentration range between 0.16–100 nM and 1.6–1000 nM (5-fold dilution series) and analyzed in triplicate. The data were analyzed using the Biacore Evaluation software 3.2.1. […] Data were fitted to a 1:1 binding model.

[3] = test system: HT-1376-derived tumor xenograft model; test: Small animal PET/CT imaging; set-up: species or system mice; settings: mouse, in vivo
Description: All animal experiments were performed following the protocols evaluated and approved by the Landesdirektion Sachsen, Referat 25 – Veterinärwesen, Lebensmittelüberwachung and Pharmazie (09105 Chemnitz, Germany, ethics approval number: 25-5131/562/52). HT-1376- and 5637-derived tumor xenograft models were established in NMRI nude mice (Rj: NMRI-Foxn1nu/nu, Charles River Laboratories, Sulzfeld, Germany) by subcutaneous injection of 5 × 10^6 cells in 100 μL of PBS containing 50% (v/v) Matrigel (Corning Life Sciences, Amsterdam, The Netherlands).
When the tumor volume reached 200 mm^3, PET experiments with radiotracers were performed. Radiolabeling of the ligands was performed as described previously with an apparent molar activity of 25 MBq/nmol. The radioligand stock solution (pH 6.5 – 7.5) was diluted in 0.9% NaCl, and 200 μL containing ∼9 MBq ([…]) was injected per mouse intravenously into a lateral tail vein. For blocking of target-specific radioligand binding, 75 nmol of blocking substance (1d) was administered simultaneously with the radioligand. Coincidences were recorded continuously in a 2 h PET-scan starting with the injection. Additionally, a CT scan was performed for anatomical referencing and attenuation correction. PET/CT imaging, reconstruction, and tissue delineation were carried out as described previously.

SMILES	Hill coefficient n [1]	fold lower binding affinity compared to 1e [1]	kon ([2]; HBS-P+ pH 7.4, 25 °C)	koff ([2]; pH 7.4, HBS-P+ pH 7.4, 25 °C)	other results
CSCC[C@@H]1NC(=O)[C@@H]2CSCCC(=O)N3CN(CN(C3)C(=O)CCSC[C@H](NC(=O)CN3CCN(CC(=O)O)CCN(CC(=O)O)CCN(CC(=O)O)CC3)C(=O)N3CCC[C@H]3C(=O)N[C@@H](Cc3cccc4ccccc34)C(=O)N[C@H](CC(=O)O)C(=O)N2)C(=O)CCSCC(C(N)=O)NC(=O)[C@H](Cc2c[nH]c3ccccc23)NC(=O)[C@@H]2C[C@@H](O)CN2C(=O)[C@@H]2CCCN2C(=O)[C@H]([C@@H](C)O)NC(=O)[C@H](CO)NC(=O)[C@H](Cc2c[nH]c3ccccc23)NC(=O)[C@H](CC(=O)O)NC(=O)[C@H](CCCCNC(=N)N)NC1=O (stereo partly shown) [1f]	1.18	10 fold	8.76e+06 M⁻¹ s⁻¹	0.0115 s⁻¹	Kd ([2]; HBS-P+ pH 7.4, 25 °C, single-cycle kinetics, 1:1 model, read-out: K d (SPR)): 1.31 nM
CSCC[C@@H]1NC(=O)[C@@H]2CSCCC(=O)N3CN(CN(C3)C(=O)CCSC[C@H](NC(=O)CC[C@H](C(=O)O)N3CCN(CC(=O)O)CCN(CC(=O)O)CC3)C(=O)N3CCC[C@H]3C(=O)N[C@@H](Cc3cccc4ccccc34)C(=O)N[C@H](CC(=O)O)C(=O)N2)C(=O)CCSC[C@@H](C(N)=O)NC(=O)[C@H](Cc2c[nH]c3ccccc23)NC(=O)[C@@H]2C[C@@H](O)CN2C(=O)[C@@H]2CCCN2C(=O)[C@H]([C@@H](C)O)NC(=O)[C@H](CO)NC(=O)[C@H](Cc2c[nH]c3ccccc23)NC(=O)[C@H](CC(=O)O)NC(=O)[C@H](CCCCNC(=N)N)NC1=O [[^68Ga]Ga-1e] [metal not drawn]	–	–	–	–	Blood half life fast [3]: 1.51 ± 0.31 min; Blood half life slow [3]: 42.24 ± 4.20 min; Percent fast [%] [3]: 80.73 ±3.35%; body retention at 2 h p.i. [3]: 65%; time of highest tumor uptake [3]: 8.5 min
COCC[C@@H]1NC(=O)[C@@H]2CSCCC(=O)N3CN(CN(C3)C(=O)CCSC[C@H](NC(=O)CC[C@H](C(=O)O)N3CCN(CC(=O)O)CCN(CC(=O)O)CC3)C(=O)N3CCC[C@H]3C(=O)N[C@@H](Cc3cccc4ccccc34)C(=O)N[C@H](CC(=O)O)C(=O)N2)C(=O)CCSC[C@@H](C(N)=O)NC(=O)[C@H](Cc2c[nH]c3ccccc23)NC(=O)[C@@H]2C[C@@H](O)CN2C(=O)[C@@H]2CCCN2C(=O)[C@H]([C@@H](C)O)NC(=O)[C@H](CO)NC(=O)[C@H](Cc2c[nH]c3ccccc23)NC(=O)[C@H](CC(=O)O)NC(=O)[C@H](CCCCNC(=N)N)NC1=O [[^68Ga]Ga-4] [metal not drawn] (X1-CP[1Nal][dD]C[hSer](Me)[hArg]DWSTP[Hyp]WC-NH2; linker 1-5-15 via TATA)	–	–	–	–	Percent fast [%] [3]: 78.47 ±3.76%; time of highest tumor uptake [3]: 8.5 min
CCOC[C@@H]1NC(=O)[C@@H]2CSCCC(=O)N3CN(CN(C3)C(=O)CCSC[C@H](NC(=O)CC[C@H](C(=O)O)N3CCN(CC(=O)O)CCN(CC(=O)O)CC3)C(=O)N3CCC[C@H]3C(=O)N[C@@H](Cc3cccc4ccccc34)C(=O)N[C@H](CC(=O)O)C(=O)N2)C(=O)CCSC[C@@H](C(N)=O)NC(=O)[C@H](Cc2c[nH]c3ccccc23)NC(=O)[C@@H]2C[C@@H](O)CN2C(=O)[C@@H]2CCCN2C(=O)[C@H]([C@@H](C)O)NC(=O)[C@H](CO)NC(=O)[C@H](Cc2c[nH]c3ccccc23)NC(=O)[C@H](CC(=O)O)NC(=O)[C@H](CCCCNC(=N)N)NC1=O [compound 6] (X1-CP[1Nal][dD]CS(Et)[hArg]DWSTP[Hyp]WC-NH2; linker 1-5-15 via TATA)	1.42	approximately 10 fold	3.86e+06 M⁻¹ s⁻¹	0.0247 s⁻¹	–
CCSC[C@@H]1NC(=O)[C@@H]2CSCCC(=O)N3CN(CN(C3)C(=O)CCSC[C@H](NC(=O)CC[C@H](C(=O)O)N3CCN(CC(=O)O)CCN(CC(=O)O)CC3)C(=O)N3CCC[C@H]3C(=O)N[C@@H](Cc3cccc4ccccc34)C(=O)N[C@H](CC(=O)O)C(=O)N2)C(=O)CCSC[C@@H](C(N)=O)NC(=O)[C@H](Cc2c[nH]c3ccccc23)NC(=O)[C@@H]2C[C@@H](O)CN2C(=O)[C@@H]2CCCN2C(=O)[C@H]([C@@H](C)O)NC(=O)[C@H](CO)NC(=O)[C@H](Cc2c[nH]c3ccccc23)NC(=O)[C@H](CC(=O)O)NC(=O)[C@H](CCCCNC(=N)N)NC1=O [compound 7] (X1-CP[1Nal][dD]CC(Et)[hArg]DWSTP[Hyp]WC-NH2; linker 1-5-15 via TATA)	1.93	approximately 10 fold	4.61e+06 M⁻¹ s⁻¹	–	koff ([2]; HBS-P+ pH 7.4, 25 °C): 0.0268 s⁻¹

Continued, in another order:

Hill coefficient n [1]	fold lower binding affinity compared to 1e [1]	kon ([2]; HBS-P+ pH 7.4, 25 °C)	koff ([2]; pH 7.4, HBS-P+ pH 7.4, 25 °C)	SMILES	other results
2.12	–	–	–	CSCC[C@@H]1NC(=O)[C@@H]2CSCCC(=O)N3CN(CN(C3)C(=O)CCSC[C@H](N)C(=O)N3CCC[C@H]3C(=O)N[C@@H](Cc3cccc4ccccc34)C(=O)N[C@H](CC(=O)O)C(=O)N2)C(=O)CCSC[C@@H](C(N)=O)NC(=O)[C@H](Cc2c[nH]c3ccccc23)NC(=O)[C@@H]2C[C@@H](O)CN2C(=O)[C@@H]2CCCN2C(=O)[C@H]([C@@H](C)O)NC(=O)[C@H](CO)NC(=O)[C@H](Cc2c[nH]c3ccccc23)NC(=O)[C@H](CC(=O)O)NC(=O)[C@H](CCCCNC(=N)N)NC1=O [1c]	–
2.37	–	–	–	CSCC[C@@H]1NC(=O)[C@@H]2CSCCC(=O)N3CN(CN(C3)C(=O)CCSC[C@H](NC(C)=O)C(=O)N3CCC[C@H]3C(=O)N[C@@H](Cc3cccc4ccccc34)C(=O)N[C@H](CC(=O)O)C(=O)N2)C(=O)CCSC[C@@H](C(N)=O)NC(=O)[C@H](Cc2c[nH]c3ccccc23)NC(=O)[C@@H]2C[C@@H](O)CN2C(=O)[C@@H]2CCCN2C(=O)[C@H]([C@@H](C)O)NC(=O)[C@H](CO)NC(=O)[C@H](Cc2c[nH]c3ccccc23)NC(=O)[C@H](CC(=O)O)NC(=O)[C@H](CCCCNC(=N)N)NC1=O [1d, reference compound]	–
1.80	–	–	–	CCCC[C@@H]1NC(=O)[C@@H]2CSCCC(=O)N3CN(CN(C3)C(=O)CCSC[C@H](NC(C)=O)C(=O)N3CCC[C@H]3C(=O)N[C@@H](Cc3cccc4ccccc34)C(=O)N[C@H](CC(=O)O)C(=O)N2)C(=O)CCSC[C@@H](C(N)=O)NC(=O)[C@H](Cc2c[nH]c3ccccc23)NC(=O)[C@@H]2C[C@@H](O)CN2C(=O)[C@@H]2CCCN2C(=O)[C@H]([C@@H](C)O)NC(=O)[C@H](CO)NC(=O)[C@H](Cc2c[nH]c3ccccc23)NC(=O)[C@H](CC(=O)O)NC(=O)[C@H](CCCCNC(=N)N)NC1=O [3b] (Ac-CP[1Nal][dD]C[Nle][hArg]DWSTP[Hyp]WC-NH2; linker 1-5-15 via TATA)	–
–	–	1.1e+06 M⁻¹ s⁻¹	0.0026 s⁻¹	CSCC[C@@H]1NC(=O)[C@@H]2CSCCC(=O)N3CN(CN(C3)C(=O)CCSC[C@H](NC(=O)CC[C@H](C(=O)O)N3CCN(CC(=O)O)CCN(CC(=O)O)CC3)C(=O)N3CCC[C@H]3C(=O)N[C@@H](Cc3cccc4ccccc34)C(=O)N[C@H](CC(=O)O)C(=O)N2)C(=O)CCSC[C@@H](C(N)=O)NC(=O)[C@H](Cc2c[nH]c3ccccc23)NC(=O)[C@@H]2C[C@@H](O)CN2C(=O)[C@@H]2CCCN2C(=O)[C@H]([C@@H](C)O)NC(=O)[C@H](CO)NC(=O)[C@H](Cc2c[nH]c3ccccc23)NC(=O)[C@H](CC(=O)O)NC(=O)[C@H](CCCCNC(=N)N)NC1=O [natGa-1e, metal not drawn]	–
